Test results published in patent publication US20260356824A1, “COMPOUNDS FOR TREATING FIBROTIC DISEASES” (Meta-Immue Inc., priority 2023, published 2026).

Tests used:
hLPAR1 = target: T1, hLPAR1 (Homo sapiens, UniProt Q92633); assay: Ca2+ Flux Assay (B103 cells stably expressing hLPAR1); assay type: cell-based; settings: LPA-induced calcium release, Fura-2 AM, compound 20 min at RT
T1 construct: expressed in transfected cells
Procedure, shortened: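 Fura-2 AM (5 μM) loaded 40 min at RT in HBSS/20 mM HEPES/probenecid/0.3% fatty-acid-free BSA after 2 h serum starvation. Compounds preincubated 20 min at RT, then LPA […] added. Intracellular calcium mobilization read as fluorescence intensity.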

[1] = Liver microsomal stability, rat; assay type: in vitro ADME; settings: rat liver microsomes; 30 min; percent of parent remaining; read-out: Liver Microsomal stability (%), % of remaining after 30 min, Rat
BSEP = target: T2, BSEP (Homo sapiens, UniProt O95342); assay: Bile Salt Export Pump (BSEP) Assay, Sf9 insect cell vesicles expressing BSEP; assay type: in vitro ADME; settings: 10 μM test compound, probe substrate 1 μM [3H]-taurocholic acid, 15 min incubation
T2 construct: ATP-dependent uptake of radiolabelled probe substrate
Experimental: • 1. A stock solution was prepared with the test article (Sponsor compound) in DMSO. • 2. All final assay solutions of probe substrate, reference inhibitor or test article contain 0.5% (v/v) DMSO (vehicle control). • 3. Test article concentrations in transport study were specified in the Summary Table of Experimental Conditions of this protocol.
• 1. Bovine Serum Albumin (BSA) • 2. Dimethyl sulfoxide (DMSO) • 3. BSEP Assay Uptake Buffer (10 mM HEPES-Tris pH 7.4, 0.1 M KNO3, 12.5 mM Mg(NO3)2, 50 mM sucrose) • 4. BSEP Wash Buffer (10 mM Tris-HCl pH 7.4, 0.1 M KNO3, 50 mM sucrose) • 5. BSEP Blocking Buffer (BSEP Wash Buffer+0.5 mg/mL BSA) • 6. 25 mM Mg-ATP solution • 7. 25 mM AMP solution • 8. Corning Costar 96-well flat-bottom, untreated, white Assay Plate (Corning Cat. No. 3912) • 9. Millipore MultiscreenHTs Filtration Plate, glass fiber FB—1.0/0.65 μm (Cat. No. MSFBN6B10 or glass fiber FC—1.2/0.65 μm (Cat. No. MSFCN6B10) • 10. Millipore MultiscreenHTS Vacuum Manifold (Cat. No. MSVMHTS00) • 11. Probe substrates listed in Table 1 • 12. Reference inhibitors listed in Table 1 • 13. Test articles
• 1. Test system: • a. 96-well flat bottom plate containing a suspension of vesicles and a corresponding 96-well glass fiber filtration plate. • b. Transport experiments were conducted in the Assay Uptake Buffer. • c. Transport experiment was initiated with the addition of Mg-ATP or AMP to appropriate wells. • d. Each condition was run in triplicate wells. • 2. Prepared the 96-well flat-bottom assay plate. • a. Incubated the assay plate with the Blocking Buffer for 60 min at 37 °C with orbital shaking at approximately 90 rpm. (NOTE: This is done to prevent non-specific binding of vesicles to polystyrene assay plate). • b. After 60 min, completely removed the Blocking Buffer from the assay plate. • c. The Assay Uptake Buffer solutions were added to the assay plate wells as follows: • i. For probe substrate transport assays, the Assay Uptake Buffer contained vesicles and the probe substrate at the specified concentration. • ii. For the reference inhibition assay, the Assay Uptake Buffer contained vesicles, the reference inhibitor and the probe substrate at the specified concentration in Table 1. • iii. For the test article assays, Assay Uptake Buffer contained vesicles, the test article and the probe substrate at the specified concentration in Table 1. • 3. Incubate at 37 °C with orbital shaking at approximately 90 rpm for the time period specified in Table 1 of this protocol. • 4. Using the 25 mM Mg-ATP or AMP stocks, Mg-ATP or AMP was added to test wells of flat bottom assay plate to a final concentration of 5 mM. • 5. Incubated at 37 °C with orbital shaking at approximately 90 rpm for the incubation time specified in Table 1 of this protocol. • 6. Prepared the 96-well glass fiber filtration plate: • a. Incubated the filtration plate with the Blocking Buffer for 2 min at room temperature with under no vacuum. • b. Turned on vacuum and allowed Blocking Buffer to filter through plate. • c. With vacuum on, filter plate was washed with ice cold Wash Buffer. • 7. At the end of the specified incubation time indicated in […] of this protocol, vesicle transport was quenched by adding ice cold Wash Buffer to samples in 96-well assay plate. • 8. Mixed assay samples (now diluted in Wash Buffer) with pipette and transfered 175 μL into the 96-well glass fiber filtration plate to separate vesicles from buffer by applying vacuum. • 9. Washed filter plate wells with ice cold Wash Buffer. • 10. Allowed filter plate to dry under vacuum. • 11. Transfered filters to scintillation sample plate and added 700 μL of scintillation fluid to the above samples. • 12. Counted the above samples on a 1450 Microbeta (Perkin-Elmer).
• 1. The amount of substrate was quantified with radiometric detection on a 1450 Microbeta (Perkin-Elmer). • 2. For transport study samples run in triplicate, the mean and standard deviation of the replicates were reported. • 3. […]

[2] = Liver microsomal stability, human; assay type: in vitro ADME; settings: human liver microsomes; 30 min; percent of parent remaining; read-out: Liver Microsomal stability (%), % of remaining after 30 min, Human
A2058 cells = assay: Chemotaxis Assay (LPA-induced migration of A2058 cells); assay type: cell-based; settings: Homo sapiens, 4 to 8 hours, crystal violet 590 nm
Procedure, shortened: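 A2058 cells, starved 24 hr and treated with test compound or vehicle, were placed on a fibronectin-coated membrane ([…]) above […] in DMEM. After 4–8 h migration, migrated cells were crystal violet stained and read at 590 nm. Values are relative percentage of control.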

T1 sequence (Q92633 whole entry): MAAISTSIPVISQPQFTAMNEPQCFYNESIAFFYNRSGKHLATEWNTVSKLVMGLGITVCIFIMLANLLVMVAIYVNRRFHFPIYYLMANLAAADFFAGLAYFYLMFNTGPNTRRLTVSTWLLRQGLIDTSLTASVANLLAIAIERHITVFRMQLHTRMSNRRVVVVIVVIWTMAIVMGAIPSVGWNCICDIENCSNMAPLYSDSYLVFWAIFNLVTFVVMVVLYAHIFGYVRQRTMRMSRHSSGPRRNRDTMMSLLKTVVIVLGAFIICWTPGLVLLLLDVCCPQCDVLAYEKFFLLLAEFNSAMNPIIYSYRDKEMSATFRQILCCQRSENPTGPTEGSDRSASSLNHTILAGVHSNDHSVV
T2 sequence (O95342 whole entry): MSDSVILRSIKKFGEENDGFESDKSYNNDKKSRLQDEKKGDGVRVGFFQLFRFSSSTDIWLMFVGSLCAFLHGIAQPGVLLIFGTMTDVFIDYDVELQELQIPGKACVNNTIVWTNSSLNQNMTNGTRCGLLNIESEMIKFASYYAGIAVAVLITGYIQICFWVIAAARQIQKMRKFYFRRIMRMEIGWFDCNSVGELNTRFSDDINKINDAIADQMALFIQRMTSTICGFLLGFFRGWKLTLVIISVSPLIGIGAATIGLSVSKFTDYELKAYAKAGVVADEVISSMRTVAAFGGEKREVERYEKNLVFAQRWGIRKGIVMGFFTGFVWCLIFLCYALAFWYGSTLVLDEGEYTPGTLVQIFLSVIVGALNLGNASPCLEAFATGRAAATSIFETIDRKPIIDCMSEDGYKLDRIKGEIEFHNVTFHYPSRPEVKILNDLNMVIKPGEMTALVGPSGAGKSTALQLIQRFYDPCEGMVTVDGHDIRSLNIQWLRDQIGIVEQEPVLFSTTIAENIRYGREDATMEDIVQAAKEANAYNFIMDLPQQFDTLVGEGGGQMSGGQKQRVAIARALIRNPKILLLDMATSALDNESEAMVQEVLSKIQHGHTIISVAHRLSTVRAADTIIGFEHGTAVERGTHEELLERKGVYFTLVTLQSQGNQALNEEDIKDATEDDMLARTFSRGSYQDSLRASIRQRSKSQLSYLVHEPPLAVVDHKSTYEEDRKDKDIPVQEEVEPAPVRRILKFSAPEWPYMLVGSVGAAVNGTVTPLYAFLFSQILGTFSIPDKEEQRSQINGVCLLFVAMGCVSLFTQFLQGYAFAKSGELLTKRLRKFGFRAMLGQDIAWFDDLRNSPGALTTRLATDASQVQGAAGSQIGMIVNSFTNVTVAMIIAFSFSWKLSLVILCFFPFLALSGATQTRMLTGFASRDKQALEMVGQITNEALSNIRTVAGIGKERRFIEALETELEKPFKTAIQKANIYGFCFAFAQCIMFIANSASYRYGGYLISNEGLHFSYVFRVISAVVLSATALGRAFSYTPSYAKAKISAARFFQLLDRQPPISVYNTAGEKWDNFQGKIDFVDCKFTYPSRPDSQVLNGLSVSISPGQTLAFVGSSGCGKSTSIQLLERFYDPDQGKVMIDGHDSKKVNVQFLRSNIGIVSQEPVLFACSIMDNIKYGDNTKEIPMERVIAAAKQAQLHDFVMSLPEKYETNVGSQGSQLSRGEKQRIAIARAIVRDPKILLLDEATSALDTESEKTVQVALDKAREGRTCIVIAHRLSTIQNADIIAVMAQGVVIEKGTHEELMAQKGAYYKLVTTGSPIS

SMILES | IC50 (hLPAR1) | remaining at 0.5 h [1] | remaining at 0.5 h [2] | IC50 (A2058 cells) | inhibition at 0.25 h, 10 µM (BSEP)
Cc1noc(C2CCN(c3ccc(C4(C(=O)NS(C)(=O)=O)CC4)cc3)CC2)c1NC(=O)O[C@H](C)c1ccccc1 [Compound 12] | 10 to 200 nM | 50 to 75% | > 75% | < 100 nM | 25 to 50%
Cc1noc(C2CCN(c3ccc(C4(C(=O)NS(=O)(=O)C(C)(C)CO)CC4)cc3)CC2)c1NC(=O)O[C@H](C)c1ccccc1 [Compound 70] | < 10 nM | > 75% | > 75% | < 100 nM | –
CCCN(C)C(=O)OCc1c(C)noc1C1CCN(c2ccc(C3(C(=O)NS(=O)(=O)C(F)(F)F)CC3)cc2)CC1 [Compound 13] | ≥ 3000 nM | 50 to 75% | ≤ 25% | ≥ 5000 nM | –
Cc1noc(C2CCN(c3ccc(C4(C(=O)NS(=O)(=O)CC(=O)O)CC4)cc3)CC2)c1NC(=O)O[C@H](C)c1ccccc1 [Compound 80] | < 10 nM | 50 to 75% | > 75% | < 100 nM | 25 to 50%
Cc1ccccc1[C@@H](C)OC(=O)Nc1c(C)noc1C1CCN(c2ccc(C3(C(=O)NS(N)(=O)=O)CC3)cc2)CC1 [Compound 35] | < 10 nM | 50 to 75% | 25 to 50% | < 100 nM | –
Cc1noc(C2CN(c3ccc(C4(C(=O)O)CC4)cc3)C2)c1NC(=O)O[C@H](C)c1ccccc1 [Compound 23, (R)-1-(4-(3-(3-methyl-4-(((1-phenylethoxy)carbonyl)amino)isoxazol-5-yl)azetidin-1-yl)phenyl)cyclopropane-1-carboxylic acid] | 10 to 200 nM | > 75% | > 75% | 500 to 5000 nM | 25 to 50%
Cc1nsc(C2CCN(c3ccc(C4(C(=O)NS(=O)(=O)C(F)(F)F)CC4)cc3)CC2)c1NC(=O)O[C@H](C)c1ccccc1 [Compound 94] | < 10 nM | 50 to 75% | 50 to 75% | < 100 nM | 75 to 100%
Cc1nc(C2(C(=O)O)CC2)ccc1N1CCC(c2onc(C)c2NC(=O)O[C@H](C)c2ccccc2)CC1 [Compound 62] | 10 to 200 nM | > 75% | > 75% | 100 to 500 nM | 25 to 50%
CCc1ccccc1[C@@H](C)OC(=O)Nc1c(C)noc1C1CCN(c2ccc(C3(C(=O)O)CC3)cc2)CC1 [Compound 38, (R)-1-(4-(4-(4-(((1-(2-ethylphenyl)ethoxy)carbonyl)amino)-3-methylisoxazol-5-yl)piperidin-1-yl)phenyl)cyclopropane-1-carboxylic acid] | < 10 nM | > 75% | 25 to 50% | < 100 nM | 50 to 75%
Cc1noc(N2CCC(c3ccc(C4(C(=O)O)CC4)cc3)CC2)c1NC(=O)O[C@H](C)c1ccccc1 [Compound 8, (R)-1-(4-(1-(3-methyl-4-(((1-phenylethoxy)carbonyl)amino)isoxazol-5-yl)piperidin-4-yl)phenyl)cyclopropane-1-carboxylic acid] | < 10 nM | 50 to 75% | 50 to 75% | 100 to 500 nM | 50 to 75%
CNS(=O)(=O)NC(=O)C1(c2ccc(N3CCC(c4onc(C)c4NC(=O)O[C@H](C)c4ccccc4)CC3)cc2)CC1 [Compound 86] | < 10 nM | > 75% | > 75% | 100 to 500 nM | 50 to 75%
Cc1noc(C2CCN(c3ccc(C4(C(=O)NS(=O)(=O)CC(C)CO)CC4)cc3)CC2)c1NC(=O)O[C@H](C)c1ccccc1 (stereo partly drawn) [Compound 79, (1R)-1-phenylethyl N-{5-[1-(4-{1-[(3-hydroxy-2-methylpropanesulfonyl)carbamoyl]cyclopropyl}phenyl)piperidin-4-yl]-3-methyl-1,2-oxazol-4-yl}carbamate] | < 10 nM | – | – | < 100 nM | 25 to 50%
Cc1noc(C2CCN(c3ccc(C4(C(=O)O)CC4)cc3)CC2)c1CNC(=O)O[C@@H](C)c1ccccc1 [Compound 25] | 10 to 200 nM | > 75% | > 75% | ≥ 5000 nM | –
Cc1noc([C@@H]2CCN(c3ccc(C4(C(=O)O)CC4)cc3)[C@H](C)C2)c1NC(=O)O[C@H](C)c1ccccc1 (single isomer, unassigned) [Compound 21] | 10 to 200 nM | > 75% | > 75% | < 100 nM | –

More lines, main results first:

IC50 (hLPAR1) | remaining at 0.5 h [1] | remaining at 0.5 h [2] | IC50 (A2058 cells) | SMILES | inhibition at 0.25 h, 10 µM (BSEP)
10 to 200 nM | 50 to 75% | 50 to 75% | 100 to 500 nM | Cc1noc(C2CCN(c3ccc(C4(C(=O)O)CC4)cc3)CC2)c1N[C@H](C)CCc1ccccc1 [Compound 22] | –
< 10 nM | > 75% | > 75% | < 100 nM | Cc1noc(C2CCN(c3ccc(C4(C(=O)O)CC4)cc3)CC2)c1NC(=O)O[C@H](C)c1ccccc1 [Compound 87, 1-(4-{4-[3-methyl-4-({[(1R)-1-phenylethoxy]carbonyl}amino)-1,2-oxazol-5-yl]piperidin-1-yl}phenyl)cyclopropane-1-carboxylic acid] | 25 to 50%
< 10 nM | – | – | 500 to 5000 nM | C[C@@H](OC(=O)Nc1c(C2CCN(c3ccc(C4(C(=O)NS(=O)(=O)CCC(=O)O)CC4)cc3)CC2)nnn1C)c1ccccc1 [Compound 17] | ≤ 25%
10 to 200 nM | – | – | 100 to 500 nM | C[C@@H](OC(=O)Nc1c(C2CCN(c3ccc(C4(C(=O)O)CC4)cc3)CC2)nnn1C)c1ccccc1 [Compound 60, (R)-1-(4-(4-(1-methyl-5-(((1-phenylethoxy)carbonyl)amino)-1H-1,2,3-triazol-4-yl)piperidin-1-yl)phenyl)cyclopropane-1-carboxylic acid] | ≤ 25%
10 to 200 nM | – | – | 100 to 500 nM | Cc1nsc(C2CCN(c3ccc(C4(C(=O)O)CC4)cc3)CC2)c1NC(=O)O[C@H](C)c1ccccc1 [Compound 95] | 25 to 50%
10 to 200 nM | – | – | < 100 nM | C[C@@H](OC(=O)Nc1ccsc1C1CCN(c2ccc(C3(C(=O)O)CC3)cc2)CC1)c1ccccc1 [Compound 93] | 50 to 75%
10 to 200 nM | > 75% | > 75% | 500 to 5000 nM | Cn1nnc(C2CCN(c3ccc(C4(C(=O)O)CC4)cc3)CC2)c1Nc1cccc(-c2ccccc2)n1 [Compound 6] | –
